Measured values reported in the NIST ThermoML archive (doi:10.1021/acs.jced.7b00674).
Numbers after ± are expanded uncertainties.

How the values were obtained:
[1] = 298.15 K; 101.33 kPa; Liquid; Vibrating tube method
[2] = refractive index (Na D-line) (dimensionless); conditions: 298.15 K; 101.33 kPa; Liquid; Standard Abbe refractometry

Row | SMILES | mass density [1] [kg/m3] | refractive index [2]
1 | Cc1ccc(C)cc1 [1,4-dimethylbenzene] | 856.5 ± 16 | 1.4931 ± 0.012
2 | Cc1ccccc1 [toluene] | 862.1 ± 16 | 1.4938 ± 0.012
3 | CC(=O)C=C(C)C [4-methyl-3-penten-2-one] | 857.6 ± 16 | 1.4416 ± 0.012
4 | OC1CCCCC1 [cyclohexanol] | 961.5 ± 16 | 1.4621 ± 0.012
5 | O [water] |  | 1.3324 ± 0.012
